Target: hERG channel (Homo sapiens, UniProt Q12809)
Assay: hERG manual patch clamp assay
Type: cell-based
Details: HEK 293 cells stably expressing hERG channel, pH 7.35, 10 μM compound
In short: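 Whole-cell manual patch clamp on doxycycline-induced HEK293 cells stably expressing hERG. Tail current measured at −50 mV after a 4.8 s step to +30 mV from −90 mV holding; test compounds at 10 μM, 0.1% DMSO, vs vehicle baseline. Percent inhibition from peak tail current, […].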

hERG channel, sequence (Q12809 whole entry): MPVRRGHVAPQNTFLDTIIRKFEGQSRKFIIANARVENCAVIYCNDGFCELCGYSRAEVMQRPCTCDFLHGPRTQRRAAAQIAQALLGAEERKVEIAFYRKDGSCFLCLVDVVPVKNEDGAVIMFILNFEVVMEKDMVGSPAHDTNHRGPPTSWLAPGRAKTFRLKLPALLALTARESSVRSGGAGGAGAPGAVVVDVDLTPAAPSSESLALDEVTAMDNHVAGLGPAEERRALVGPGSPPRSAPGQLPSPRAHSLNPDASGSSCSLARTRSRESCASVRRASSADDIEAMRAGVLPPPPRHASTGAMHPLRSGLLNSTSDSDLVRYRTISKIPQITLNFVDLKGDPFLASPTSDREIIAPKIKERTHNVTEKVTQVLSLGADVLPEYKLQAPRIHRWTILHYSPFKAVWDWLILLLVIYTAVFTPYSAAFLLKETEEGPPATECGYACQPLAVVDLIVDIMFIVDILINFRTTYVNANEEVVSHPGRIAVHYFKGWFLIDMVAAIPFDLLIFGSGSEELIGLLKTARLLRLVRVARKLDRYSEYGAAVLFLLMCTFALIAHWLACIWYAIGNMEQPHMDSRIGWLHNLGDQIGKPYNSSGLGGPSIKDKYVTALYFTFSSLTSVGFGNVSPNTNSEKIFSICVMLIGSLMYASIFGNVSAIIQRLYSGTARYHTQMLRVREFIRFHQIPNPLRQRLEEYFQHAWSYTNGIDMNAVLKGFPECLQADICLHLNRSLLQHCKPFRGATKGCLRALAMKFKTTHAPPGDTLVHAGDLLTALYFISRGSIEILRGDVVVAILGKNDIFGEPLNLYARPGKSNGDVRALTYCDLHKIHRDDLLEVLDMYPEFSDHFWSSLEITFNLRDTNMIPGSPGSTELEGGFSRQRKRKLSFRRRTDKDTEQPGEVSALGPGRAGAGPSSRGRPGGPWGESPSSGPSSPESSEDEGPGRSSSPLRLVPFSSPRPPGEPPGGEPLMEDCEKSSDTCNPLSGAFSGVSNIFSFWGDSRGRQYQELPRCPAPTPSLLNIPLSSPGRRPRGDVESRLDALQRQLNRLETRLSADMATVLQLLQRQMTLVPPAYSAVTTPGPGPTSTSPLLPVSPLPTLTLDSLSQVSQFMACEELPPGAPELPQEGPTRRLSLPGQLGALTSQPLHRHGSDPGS

| Structure (SMILES) | inhibition at 10 µM [%] |
| --- | --- |
| Cn1c(Nc2nc3ccccc3o2)nc2cc(C(=O)NCCOCCO)ccc21 [Example 17, 2-(benzo[d]oxazol-2-ylamino)-N-(2-(2-hydroxyethoxy)ethyl)-1-methyl-1H-benzo[d]imidazole-5-carboxamide] | 16 |
| COCCNC(=O)c1ccc2c(c1)nc(Nc1nc3ccc(OCCOC)cc3o1)n2C [Example 56, 2-((6-(2-methoxyethoxy)benzo[d]oxazol-2-yl)amino)-N-(2-methoxyethyl)-1-methyl-1H-benzo[d]imidazole-5-carboxamide] | 35 |
